Reference: patent US9957268B2, “1H-pyrrolo[2,3,c]pyridin-7(6H)-ones and pyrazolo[3,4-c]pyridin-7(6H)-ones as inhibitors of BET proteins” (Incyte Corporation, priority 2014, dated 2018)

Columns and labels:
[1] = tested on: KMS.12.BM cells; assay: KMS.12.BM cell viability assay (ATP quantitation, Cell Titer-GLO); assay type: cell-based; details: human myeloma cell line, 3 days, concentration required for 50% cell death
Experimental: KMS. 12.BM cell line (human myeloma) was purchased from JCRB (Osaka, Japan) and maintained in RPMI with 10% FBS culture medium. To measure the cytotoxic activity of the compounds through ATP quantitation, the KMS. 12.BM cells are plated in the RPMI culture medium at 5000 cells/well/per 100 μL into a 96-well polystyrene clear black tissue culture plate (Greiner-bio-one through VWR, NJ), in the presence or absence of a concentration range of test compounds. After 3 days, […] Cell Titer-GLO Luminescent (Promega, Madison, Wis.) cell culture agent is added to each well for 10 minutes at room temperature to stabilize the luminescent signal. This determines the number of viable cells in culture based on quantitation of the ATP present, which signals the presence of metabolically active cells. Luminescence is measured with the Top Count 384 (Packard Bioscience through Perkin Elmer, Boston, Mass.). Compound inhibition is determined relative to cells cultured with no drug and the IC50 is reported as the compound concentration required for 50% cell death.

[2] = biological target: BRD4-BD1 (Homo sapiens (Human), UniProt O60885); assay: BRD4 AlphaScreen assay (BRD4-BD1); assay type: binding; details: biotin-labeled tetra-acetylated histone H4 peptide
In short: (§1)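 AlphaScreen displacement at room temperature: 75 min with biotin-H4Ac4 peptide (50 nM) and sub-nanomolar BRD4-BD1 or BD2, then 75 min dark incubation with donor/acceptor beads (2-4 μg/mL). Buffer Tris-HCl pH 7.5 with Tween-20, BSA, DTT; DMSO 1.25% for BD1, 0.83% for BD2. IC50 by curve fitting.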

[3] = biological target: BRD4-BD2 (Homo sapiens (Human), UniProt O60885); assay: BRD4 AlphaScreen assay (BRD4-BD2); assay type: binding; details: biotin-labeled tetra-acetylated histone H4 peptide
In short: as §1

IC50 [2] [µM] | IC50 [3] [µM] | Structure (SMILES) | IC50 [1] [µM]
≤ 0.1 | ≤ 0.1 | CC(C)C1Oc2c(cc(S(C)(=O)=O)cc2-c2cn(C)c(=O)c3[nH]ncc23)NC1=O (centres unmarked) [Example 84, 2-isopropyl-8-(6-methyl-7-oxo-6,7-dihydro-1H-pyrazolo[3,4-c]pyridin-4-yl)-6-(methylsulfonyl)-2H-1,4-benzoxazin-3(4H)-one] | 
